The structures appear in SMILES notation.

In this assay the target is Mitogen-activated protein kinase 1 (Homo sapiens, UniProt P28482). As to the kind of experiment: Enzymatic Assay: Compounds were tested in an enzymatic assay using human ERK-2 (Mitogen Activated Kinase 1), recombinantly expressed as an n-terminal 6-His fusion protein in E. coli and corresponding to a 8-360. The substrate used was the fluorescent Omnia peptide S/T17 (Invitrogen of Carlsbad, Calif.; Cat. KNZ1171C). Test compounds were diluted in DMSO in 3-fold serial dilutions at 100× final concentrations. […] The assay was run at ambient temperature in a white 384-well polypropylene plate (Nunc, Inc of Naperville, Ill.; Cat. 267462) collecting data every 50 seconds for approximately 30 minutes on an Envision plate reader (PerkinElmer, Inc. of Waltham, Mass.); Excitation 340 nm/Emission 495 nm.
Chain of Mitogen-activated protein kinase 1 (P28482 whole entry, the tested form may be a part): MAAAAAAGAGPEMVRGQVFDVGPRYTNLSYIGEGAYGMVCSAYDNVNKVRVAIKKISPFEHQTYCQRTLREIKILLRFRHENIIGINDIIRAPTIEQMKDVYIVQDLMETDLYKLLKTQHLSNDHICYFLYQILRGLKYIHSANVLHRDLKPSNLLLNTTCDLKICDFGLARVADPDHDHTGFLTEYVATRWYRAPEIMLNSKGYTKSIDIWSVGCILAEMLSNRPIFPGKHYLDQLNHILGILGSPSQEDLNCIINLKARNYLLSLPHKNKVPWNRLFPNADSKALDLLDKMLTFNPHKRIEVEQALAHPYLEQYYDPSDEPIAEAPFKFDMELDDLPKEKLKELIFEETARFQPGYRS

In the case of `Cn1nccc1Nc1cc2nc(C(=O)N[C@H](CO)c3ccc(Cl)c(F)c3)ccc2cn1`, the IC50 (commonly the concentration at which inhibition is half-maximal) is 0.748 nM.

The values above are taken from ChEMBL document CHEMBL3886802, “Serine/threonine kinase inhibitors” (2016).
